{
  "source": "paper PMC3731359",
  "about": "(PLoS ONE, 2013)",
  "molecules": {"B1": {"name": "biotin-pN26 (VLALRGG) (peptide)", "peptide": "{Biotin-LC-LC}-VLALRGG", "notes": "also called pN26 conjugated to biotin; source: synthetic peptide (EZBiolab), labelled with NHS-LC-LC-biotin, HPLC purified"}},
  "key": {"[1]": {"tested_on": "UAE", "conditions": "Ala72 of Nedd8 mutated to Arg; cited from earlier work", "excerpt": "As expected the two proteins also adopt very similar structures featuring the β-grasp fold. Their E1 enzymes are also homologous to each other in both peptide sequences and crystal structures, except that NAE is a heterodimer of two subunits, APPBP1 and Uba3, while UAE is composed of a single chain [8], [20], [21]."}, "[2]": {"target": "NAE (Homo sapiens) (UniProt Q13564)", "conditions": "cited from earlier work"}, "[3]": {"target": "T1, NAE (Homo sapiens, UniProt Q13564+Q8TBC4)", "T1 construct": "made in house; host or cells: E. coli BL21(DE3)pLysS", "T1 sequence (Q8TBC4 22-463 limits assumed)": "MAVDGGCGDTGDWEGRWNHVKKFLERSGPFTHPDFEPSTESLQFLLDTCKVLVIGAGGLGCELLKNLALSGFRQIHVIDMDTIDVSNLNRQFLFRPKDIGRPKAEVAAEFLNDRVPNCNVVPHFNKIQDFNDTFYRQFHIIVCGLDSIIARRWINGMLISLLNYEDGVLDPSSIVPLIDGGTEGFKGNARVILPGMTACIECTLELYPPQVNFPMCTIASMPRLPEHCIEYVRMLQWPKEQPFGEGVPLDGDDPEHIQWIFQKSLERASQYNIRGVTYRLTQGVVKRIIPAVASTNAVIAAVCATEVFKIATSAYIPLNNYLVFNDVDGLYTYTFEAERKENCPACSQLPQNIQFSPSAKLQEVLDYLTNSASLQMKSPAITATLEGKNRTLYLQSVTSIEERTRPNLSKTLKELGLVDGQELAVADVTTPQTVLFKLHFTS", "T1 sequence (Q13564 1-534 partner)": "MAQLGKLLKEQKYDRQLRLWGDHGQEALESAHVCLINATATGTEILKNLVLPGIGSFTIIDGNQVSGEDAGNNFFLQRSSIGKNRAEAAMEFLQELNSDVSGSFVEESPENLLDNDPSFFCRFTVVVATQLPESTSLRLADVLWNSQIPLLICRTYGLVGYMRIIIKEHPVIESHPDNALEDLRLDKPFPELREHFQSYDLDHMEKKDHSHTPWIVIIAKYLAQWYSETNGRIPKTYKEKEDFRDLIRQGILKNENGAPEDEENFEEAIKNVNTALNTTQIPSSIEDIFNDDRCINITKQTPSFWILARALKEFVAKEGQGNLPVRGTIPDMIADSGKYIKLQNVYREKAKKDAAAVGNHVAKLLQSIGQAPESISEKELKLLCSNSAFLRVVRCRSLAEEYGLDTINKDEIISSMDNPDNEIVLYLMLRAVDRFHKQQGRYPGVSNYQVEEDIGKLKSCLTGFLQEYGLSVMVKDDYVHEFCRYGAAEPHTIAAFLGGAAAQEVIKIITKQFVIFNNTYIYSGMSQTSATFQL", "conditions": "cited from earlier work", "excerpt": "[…] binds to the nucleotide binding pocket of NAE as an AMP analog with a sulfamate ..."}, "[4]": {"target": "T1, NAE", "conditions": "Arg72Ala mutant of UB by site directed mutagenesis; cited from earlier work"}, "[5]": {"tested_on": "Ubc12 (E2)", "assay": "Western blot: transfer of UB variants to Ubc12", "format": "biochemical", "conditions": "5 µM HA-tagged protein, 1 µM NAE, 1 µM Ubc12, 1 µM cullin, 1 mM ATP, 1 h, room temperature, anti-HA Western blot", "method": "(§1) Figure 6 Transfer of phage selected UB variants to NAE (E1), Ubc12 (E2), and cullin-3. HA-tagged wt UB, wt Nedd8 and UB variants were used in the assay. In the control reaction, either Ubc12 or cullin-3 in complex with Rbx1 was missing. The blots were probed with a mouse anti-HA antibody and a goat anti-mouse IgG antibody linked to HRP.\n(§2) 20 µL of the reaction mixture were loaded on a 4–15% SDS-PAGE gel (Bio-Rad). After electrophoresis, the protein bands were electroblotted onto a piece of polyvinylidene fluoride membrane (Bio-Rad). The membrane was blocked with 3% BSA in TBS buffer for 1 hour followed by incubation with 3% BSA in TBS buffer containing 1∶500 diluted 200 µg/mL anti-HA antibody (Santa Cruz Biotechnology) and 1∶10,000 diluted anti-mouse horseradish peroxidase conjugate (Pierce) for 1 hour, respectively. The membrane was then washed 5 times with TBS-T buffer and 5 times with TBS buffer followed by detection with the ECL luminescent detection kit (GE Healthcare)."}, "[6]": {"tested_on": "NAE (E1)", "assay": "Western blot: formation of UB∼NAE thioester conjugates", "format": "biochemical", "conditions": "5 µM HA-tagged protein, 1 µM NAE, 1 mM ATP, 1 h, room temperature, anti-HA Western blot", "method": "as §1, §2"}, "[7]": {"tested_on": "cullin-3", "assay": "Western blot: transfer of UB variants to cullin-3", "format": "biochemical", "conditions": "5 µM HA-tagged protein, 1 µM NAE, 1 µM Ubc12, 1 µM cullin, 1 mM ATP, 1 h, room temperature, anti-HA Western blot", "method": "as §1, §2"}, "[8]": {"target": "T2, Ubc12 (UniProt P61081 1-183)", "T2 construct": "also called E2; source: expressed and purified as previously reported [33]", "T2 sequence (looked up)": "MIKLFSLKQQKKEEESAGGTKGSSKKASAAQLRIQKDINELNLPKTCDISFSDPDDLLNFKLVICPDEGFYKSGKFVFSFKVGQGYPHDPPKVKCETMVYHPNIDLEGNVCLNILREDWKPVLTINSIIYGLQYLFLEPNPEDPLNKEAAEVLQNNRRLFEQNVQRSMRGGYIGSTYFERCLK", "assay": "thioester conjugate formation (SDS-PAGE, Western blot); 5 µM biotin labeled peptide with 1 µM NAE, 1 µM Ubc12 and 1 µM cullin, 1 mM ATP, 10 mM MgCl2, 50 µM DTT, TBS, 1 hour, room temperature; streptavidin-HRP blot; covalent conjugates", "conditions": "both partners purified"}},
  "note": "Ends that are not written are not given here. * marks the point of attachment. Biotin = O=C1N[C@H]2[C@H](CS[C@H]2CCCCC(=O)*)N1",
  "data": [
    {"molecule": "Nedd8 mutant: Nedd8 with Ala72 mutated to Arg", "values": [
      {"measurement": "activation by UAE", "setting": "[1]", "value": "can be activated by UAE"},
      {"measurement": "increase in affinity with UAE", "setting": "[1]", "value": 65, "unit": "fold"}
    ]},
    {"molecule": "Nedd8 (from UniProt Q15843)", "values": [
      {"measurement": "Kd", "setting": "[2]", "value": 8.75, "unit": "µM"}
    ]},
    {"molecule": "NS(=O)(=O)OC[C@@H]1C[C@@H](n2ccc3c(N[C@H]4CCc5ccccc54)ncnc32)C[C@@H]1O", "note": "[MLN4924]", "values": [
      {"measurement": "inhibition of NAE", "setting": "[3]", "value": "potent inhibitor of NAE"}
    ]},
    {"molecule": "N26: UB variant with single Arg72Ala mutation, C-terminal sequence 71LALRGG76", "values": [
      {"measurement": "activity with NAE", "setting": "[4]", "value": "previously found to be active with NAE"},
      {"measurement": "transfer from NAE to Ubc12 (UB∼Ubc12 conjugates)", "setting": "[5]", "value": "efficiently forms UB∼Ubc12 conjugates"},
      {"measurement": "formation of UB∼NAE conjugates", "setting": "[6]", "value": "can function as the wt Nedd8 for thioester formation with NAE and Ubc12"},
      {"measurement": "transfer to cullin (cullin modification)", "setting": "[7]", "value": "substantial cullin modification at a level similar or exceeding that of wt Nedd8"}
    ]},
    {"molecule": "B1", "values": [
      {"measurement": "binding result", "setting": "[8]", "value": "binds"}
    ]}
  ]
}
